Measurements taken from PubChem BioAssay (NCI).
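Protocol summary: plate cells (96-well), add compound at 5 concentrations, incubate 48 h, interpolate endpoints linearly. TGI: total growth inhibition.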

Key:
Assay in all cases: NCI tumour cell line growth inhibition, 48 h
[1] = tested on: OVCAR-5 ovarian
[2] = tested on: NCI-H460 lung
[3] = tested on: DU-145 prostate
[4] = tested on: BT-549 breast
[5] = tested on: COLO 205 colon
[6] = tested on: SN12C renal
[7] = tested on: LOX IMVI melanoma
[8] = tested on: MDA-MB-231 breast
[9] = tested on: SNB-75 CNS
[10] = tested on: UO-31 renal
[11] = tested on: K-562 leukemia
[12] = tested on: TK-10 renal
[13] = tested on: 786-0 renal
[14] = tested on: KM12 colon
[15] = tested on: CAKI-1 renal
[16] = tested on: NCI-H23 lung
[17] = tested on: HL-60(TB) leukemia
[18] = tested on: OVCAR-4 ovarian
[19] = tested on: HCT-15 colon
[20] = tested on: OVCAR-3 ovarian
[21] = tested on: M14 melanoma
[22] = tested on: A498 renal
[23] = tested on: NCI-H226 lung
[24] = tested on: IGROV1 ovarian
[25] = tested on: MALME-3M melanoma
[26] = tested on: UACC-257 melanoma
[27] = tested on: UACC-62 melanoma
[28] = tested on: HOP-92 NSCLC
[29] = tested on: OVCAR-8 ovarian
[30] = tested on: SK-MEL-2 melanoma
[31] = tested on: MOLT-4 leukemia
[32] = tested on: HT29 colon
[33] = tested on: HS 578T breast
[34] = tested on: SF-539 CNS
[35] = tested on: U251 CNS
[36] = tested on: ACHN renal
[37] = tested on: SK-MEL-28 melanoma
[38] = tested on: PC-3 prostate
[39] = tested on: SK-OV-3 ovarian
[40] = tested on: MCF7 breast
[41] = tested on: T-47D breast
[42] = tested on: NCI/ADR-RES ovarian
[43] = tested on: EKVX NSCLC
[44] = tested on: SK-MEL-5 melanoma
[45] = tested on: HCC-2998 colon
[46] = tested on: HOP-62 NSCLC
[47] = tested on: A549 NSCLC
[48] = tested on: SNB-19 CNS
[49] = tested on: SW-620 colon
[50] = tested on: MDA-N
[51] = tested on: MDA-MB-435
[52] = tested on: HCT-116 colon
[53] = tested on: CCRF-CEM leukemia
[54] = tested on: SF-295 CNS
[55] = tested on: NCI-H522 lung
[56] = tested on: RPMI-8226 leukemia
[57] = tested on: SF-268 CNS
[58] = tested on: RXF 393 renal

## O=C(CCN1CCOCC1)c1ccc(Oc2ccc(F)cc2)cc1
[1]
  TGI: 54.2 µM
[2]
  TGI: > 100 µM
[3]
  TGI: > 100 µM
[4]
  TGI: 35.9 µM
[5]
  TGI: 47 µM
[6]
  TGI: > 100 µM
[7]
  TGI: 48.5 µM
[8]
  TGI: 39 µM
[9]
  TGI: 46.2 µM
[10]
  TGI: 38.3 µM
[11]
  TGI: 51.4 µM
[12]
  TGI: 32.5 µM
[13]
  TGI: 30.8 µM
[14]
  TGI: 32.6 µM
[15]
  TGI: 33 µM
[16]
  TGI: 70.4 µM
[17]
  TGI: 78.7 µM
[18]
  TGI: > 100 µM
[19]
  TGI: 36.5 µM
[20]
  TGI: 50.7 µM
[21]
  TGI: 38.3 µM
[22]
  TGI: > 100 µM
[23]
  TGI: 78 µM
[24]
  TGI: 39.4 µM
[25]
  TGI: 40.9 µM
[26]
  TGI: 32.9 µM
[27]
  TGI: 37 µM
[28]
  TGI: 49.5 µM
[29]
  TGI: 41.7 µM
[30]
  TGI: 57.1 µM
[31]
  TGI: 55.2 µM
[32]
  TGI: 34.2 µM
[33]
  TGI: 40.8 µM
[34]
  TGI: 38.7 µM
[35]
  TGI: > 100 µM
[36]
  TGI: 32.1 µM
[37]
  TGI: 52.2 µM
[38]
  TGI: 34.2 µM
[39]
  TGI: > 100 µM
[40]
  TGI: 40.4 µM
[41]
  TGI: 42.6 µM
[42]
  TGI: 69 µM
[43]
  TGI: 36.9 µM
[44]
  TGI: > 100 µM
[45]
  TGI: > 100 µM
[46]
  TGI: > 100 µM
[47]
  TGI: > 100 µM
[48]
  TGI: > 100 µM
[49]
  TGI: 62.6 µM
[50]
  TGI: 52.3 µM
[51]
  TGI: > 100 µM
[52]
  TGI: 44.2 µM
[53]
  TGI: 57.1 µM
[54]
  TGI: > 100 µM

## CC(=O)OCCn1c(Cc2ccc(C)cc2)nn(C(C)=O)c1=O
[1]
  TGI: > 100 µM
[2]
  TGI: > 100 µM
[3]
  TGI: > 100 µM
[55]
  TGI: > 100 µM
[4]
  TGI: > 100 µM
[5]
  TGI: > 100 µM
[6]
  TGI: > 100 µM
[7]
  TGI: > 100 µM
[8]
  TGI: > 100 µM
[10]
  TGI: > 100 µM
[11]
  TGI: > 100 µM
[12]
  TGI: > 100 µM
[13]
  TGI: > 100 µM
[14]
  TGI: > 100 µM
[15]
  TGI: > 100 µM
[16]
  TGI: > 100 µM
[17]
  TGI: > 100 µM
[18]
  TGI: > 100 µM
[19]
  TGI: > 100 µM
[20]
  TGI: > 100 µM
[21]
  TGI: > 100 µM
[22]
  TGI: > 100 µM
[23]
  TGI: > 100 µM
[24]
  TGI: > 100 µM
[25]
  TGI: > 100 µM
[26]
  TGI: > 100 µM
[56]
  TGI: > 100 µM
[27]
  TGI: > 100 µM
[28]
  TGI: > 100 µM
[29]
  TGI: > 100 µM
[30]
  TGI: > 100 µM
[31]
  TGI: > 100 µM
[32]
  TGI: > 100 µM
[33]
  TGI: > 100 µM
[34]
  TGI: > 100 µM
[35]
  TGI: > 100 µM
[36]
  TGI: > 100 µM
[37]
  TGI: > 100 µM
[38]
  TGI: > 100 µM
[39]
  TGI: > 100 µM
[40]
  TGI: > 100 µM
[57]
  TGI: > 100 µM
[41]
  TGI: > 100 µM
[42]
  TGI: > 100 µM
[43]
  TGI: > 100 µM
[44]
  TGI: > 100 µM
[45]
  TGI: > 100 µM
[47]
  TGI: > 100 µM
[48]
  TGI: > 100 µM
[49]
  TGI: > 100 µM
[50]
  TGI: > 100 µM
[51]
  TGI: > 100 µM
[52]
  TGI: > 100 µM
[54]
  TGI: > 100 µM

## O=C1NC(N/N=C/c2cccs2)=N/C1=C\c1ccco1
[1]
  TGI: > 100 µM
[2]
  TGI: > 100 µM
[3]
  TGI: > 100 µM
[55]
  TGI: 39.9 µM
[4]
  TGI: > 100 µM
[5]
  TGI: > 100 µM
[6]
  TGI: > 100 µM
[7]
  TGI: > 100 µM
[8]
  TGI: > 100 µM
[9]
  TGI: > 100 µM
[10]
  TGI: > 100 µM
[11]
  TGI: > 100 µM
[12]
  TGI: > 100 µM
[13]
  TGI: > 100 µM
[14]
  TGI: > 100 µM
[15]
  TGI: > 100 µM
[16]
  TGI: > 100 µM
[17]
  TGI: > 100 µM
[18]
  TGI: > 100 µM
[19]
  TGI: > 100 µM
[20]
  TGI: 74.4 µM
[21]
  TGI: > 100 µM
[22]
  TGI: 82.5 µM
[23]
  TGI: > 100 µM
[24]
  TGI: > 100 µM
[25]
  TGI: > 100 µM
[26]
  TGI: > 100 µM
[56]
  TGI: 94.8 µM
[27]
  TGI: > 100 µM
[58]
  TGI: > 100 µM
[28]
  TGI: > 100 µM
[29]
  TGI: > 100 µM
[30]
  TGI: 62.4 µM
[31]
  TGI: > 100 µM
[32]
  TGI: > 100 µM
[33]
  TGI: 76.7 µM
[34]
  TGI: > 100 µM
[35]
  TGI: > 100 µM
[36]
  TGI: > 100 µM
[37]
  TGI: > 100 µM
[38]
  TGI: > 100 µM
[39]
  TGI: 70.6 µM
[40]
  TGI: > 100 µM
[57]
  TGI: > 100 µM
[41]
  TGI: > 100 µM
[42]
  TGI: > 100 µM
[43]
  TGI: > 100 µM
[44]
  TGI: > 100 µM
[46]
  TGI: > 100 µM
[47]
  TGI: > 100 µM
[48]
  TGI: > 100 µM
[49]
  TGI: > 100 µM
[50]
  TGI: 13.6 µM
[51]
  TGI: 90.4 µM
[52]
  TGI: > 100 µM
[53]
  TGI: > 100 µM
[54]
  TGI: > 100 µM
